Measured values reported in patent US20080004272A1, “Compositions and methods for modulating gated ion channels” (PainCeptor Pharma Corporation, priority 2006, published 2008).

How the values were obtained:
[1] = target: T1, ASIC1a (Homo sapiens, UniProt P78348); test: Calcium imaging of MES-induced calcium response (FLIPR); type: cell-based; parameters: host or cells: HEK293; conditions: ASIC1a expressing HEK293 cells, MES-induced calcium response; read-out: IC50 (FLIPR)
T1 sequence (P78348 1-528): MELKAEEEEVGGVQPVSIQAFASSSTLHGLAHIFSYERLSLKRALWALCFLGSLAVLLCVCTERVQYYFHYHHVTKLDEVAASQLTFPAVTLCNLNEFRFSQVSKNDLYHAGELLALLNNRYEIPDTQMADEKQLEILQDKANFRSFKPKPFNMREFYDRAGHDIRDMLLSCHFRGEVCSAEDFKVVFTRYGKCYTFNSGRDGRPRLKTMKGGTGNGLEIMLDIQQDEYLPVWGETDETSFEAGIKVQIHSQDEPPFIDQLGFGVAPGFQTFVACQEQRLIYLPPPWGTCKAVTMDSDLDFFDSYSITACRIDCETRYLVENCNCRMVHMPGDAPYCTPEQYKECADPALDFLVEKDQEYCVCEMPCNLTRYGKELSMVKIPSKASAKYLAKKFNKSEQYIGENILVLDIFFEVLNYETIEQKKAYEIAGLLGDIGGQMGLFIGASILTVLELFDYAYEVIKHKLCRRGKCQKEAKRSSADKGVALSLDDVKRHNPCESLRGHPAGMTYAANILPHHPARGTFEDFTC

[2] = target: T1, ASIC1a; test: Two-electrode voltage clamp in Xenopus laevis oocytes (Xo), acid-induced currents; type: cell-based; parameters: expressed in transfected cells; host or cells: Xenopus laevis oocytes (nuclear microinjection of expression vector such as pcDNA3); conditions: Xenopus oocytes; for inhibition at 50 µM: read-out: % inh. at 50 μM (Xo)
Experimental: Two-electrode voltage clamp electrophysiological assays in Xenopus laevis oocytes expressing gated ion channels are performed as follows:
Oocytes are surgically removed from adult Xenopus laevis and treated for 2 h at room temperature with 1 mg/ml type I collagenase (Sigma) in Barth's solution under mild agitation. Selected oocytes at stage IV-V are defolliculated manually before nuclear microinjection of 2.5-5 ng of a suitable expression vector, such as pcDNA3, comprising the nucleotide sequence encoding a gated ion channel subunit protein. In such an experiment, the oocytes express homomultimeric proton-gated ion channels on their surface. In an alternate experiment, one, two, three or more vectors comprising the coding sequences for distinct gated ion channel subunits are co-injected in the oocyte nuclei. In the latter case, oocytes express heteromultimeric proton-gated ion channels. For example, ASIC2a and/or ASIC3 subunits in pcDNA3 vector are co-injected at a 1:1 cDNA ratio. After 2-4 days of expression at 19° C. in Barth's solution containing […] gentamicin and 1.8 mM CaCl2, gated ion channels are activated by applying an acidic solution (pH<7) and currents are recorded in a two electrode voltage-clamp configuration, using an OC-725B amplifier (Warner Instruments). Currents are acquired and digitized at 500 Hz on an Apple Imac G3 computer with an A/D NB-MIO-16XL interface (National Instruments) and recorded traces are post-filtered at 100 Hz in Axograph (Axon Instruments) (Neher, E. and Sakmann, B. (1976) Nature 260:799-802). Once impaled with the microelectrodes, oocytes are continuously superfused at 10-12 ml/min with a modified Ringer's solution containing 97 mM NaCl, 2 mM KCl, 1.8 mM CaCl2, and 10 mM HEPES brought to pH 7.4 with NaOH (Control Ringer). Test Ringer solution is prepared by replacing HEPES with MES and adjusting the pH to the desired acidic value. Compounds of the present invention are prepared in both the Control and Test Ringer solutions and applied to oocytes at room temperature through a computer-controlled switching valve system. Osmolarity of all solutions is adjusted to 235 mOsm with choline chloride. Similarly, recordings can also be acquired in an automated multichannel oocytes system as the OpusExpress™ (Molecular Devices, Sunnyvale, USA).
FIGS. 1A and 2A illustrate the inhibitory effects of Compounds 203 and 206 on acid-induced activation of recombinant homomeric hASIC1a channels.

| IC50 [1] | inhibition at 50 µM [2] | inhibition at 100 µM ([2]; 100 μM, read-out: % inh. at 100 μM (Xo)) | SMILES |
| --- | --- | --- | --- |
| > 70 µM | < 25% | – | COC(=O)c1cc(-c2ccccc2)c2c(c1C(=O)OC)CN(C(=O)OC(C)(C)C)CC2 [Compound 179] |
| 20 to 30 µM | 40 to 60% | – | CO/N=C1/C(=O)Nc2c1cc(-c1cc(F)ccc1OC)c1c2CN(C)CC1 [Compound 24] |
| > 70 µM | < 25% | – | CN1CCc2c(-c3ccccc3)cc3c(c2C1)NC(=O)/C3=C/c1ccc(O)cc1 [Compound 88] |
| > 70 µM | < 25% | – | CN1CCc2c(-c3ccccc3)cc3c(c2C1)NC(=O)/C3=C/c1ccc(C(=O)O)cc1 [Compound 83] |
| > 70 µM | < 25% | – | CN1CCc2c(-c3ccccc3)cc3c(c2C1)NCC31OCCO1 [Compound 77] |
| > 70 µM | < 25% | – | CN1CCc2c(-c3ccccc3)cc3c(c2C1)NC(=O)/C3=C/c1cccc(C(=O)O)c1 [Compound 84] |
| > 70 µM | < 25% | – | CC(=O)Nc1c(C(=O)O)cc(-c2ccccc2)c2c1CN(C)CC2 [Compound 144] |
| 20 to 30 µM | < 25% | – | COc1ccc(F)cc1-c1cc2c(c3c1CCN(C)C3)NC(=O)/C2=N\O[C@H]1O[C@@H](CO)[C@H](O)[C@@H](O)[C@@H]1O [Compound 20] |
| > 70 µM | 20 to 40% | – | CCOC(=O)N1CCc2c(-c3ccccc3)ccc(N)c2C1 [Compound 159] |
| > 70 µM | < 25% | – | CN1CCc2c(-c3ccccc3)cc3c(c2C1)NC(=O)/C3=C1\CCCN1C [Compound 93] |
| > 70 µM | < 25% | – | CN1CCc2c(-c3ccccc3)ccc(NCC(=O)O)c2C1 [Compound 127] |
| > 70 µM | < 25% | – | O=[N+]([O-])c1ccc(-c2ccccc2)c2ccncc12 [Compound 135] |
| > 70 µM | < 25% | – | CCOC(=O)C(=O)Nc1ccc(-c2ccccc2)c2c1CN(C(=O)OCC)CC2 [Compound 125] |
| > 70 µM | < 25% | – | CN1CCc2c(-c3ccccc3)cc(C#N)c(NC(=O)OC(C)(C)C)c2C1 [Compound 130] |
| > 70 µM | < 25% | – | CN1CCc2c(-c3ccccc3)cc3c(c2C1)NC(=O)/C3=C/c1ccccn1 [Compound 90] |
| > 70 µM | < 25% | – | CC(C)(C)OC(=O)N1CCc2c(-c3ccccc3)ccc(C(N)=O)c2C1 [Compound 181] |
| > 70 µM | < 25% | – | CN1CCc2c(-c3ccccc3)ccc(CNCC(=O)O)c2C1 [Compound 119] |
| 20 to 40 µM | 20 to 30% | – | [H]/N=C(\N)N/N=C1/C(=O)Nc2c1cc(-c1ccccc1)c1c2CN(C)CC1 [Compound 105] |
| > 70 µM | < 25% | – | CN1CCc2c(-c3ccccc3)cc3[nH]c(=O)[nH]c3c2C1 [Compound 99] |

| IC50 [1] | inhibition at 50 µM [2] | inhibition at 100 µM ([2]; 100 μM, read-out: % inh. at 100 μM (Xo)) | SMILES |
| --- | --- | --- | --- |
| > 70 µM | < 25% | – | CC(C)(C)OC(=O)N1CCc2c(-c3ccccc3)ccc(C(=O)O)c2C1 [Compound 182] |
| > 70 µM | < 25% | – | CN1CCc2c(-c3ccccc3)ccc(NCCC(=O)O)c2C1 [Compound 151] |
| 50 to 70 µM | < 25% | – | CCOC(=O)CN(C(C)=O)c1ccc(-c2ccccc2)c2c1CN(C(=O)OCC)CC2 [Compound 139] |
| 20 to 40 µM | < 25% | – | CN1CCc2c(-c3ccccc3)cc3c(c2C1)NC(=O)C3O (centres unmarked) [Compound 79] |
| > 70 µM | < 25% | – | Cc1nc2c3c(c(-c4ccccc4)cc2c(=O)o1)CCN(C)C3 [Compound 97] |
| > 70 µM | < 25% | – | CN1CCc2c(-c3ccccc3)ccc(NC(=O)CCC(=O)O)c2C1 [Compound 134] |
| > 70 µM | < 25% | – | CCOC(=O)N1CCc2c(-c3ccccc3)ccc(NCC(=O)O)c2C1 [Compound 138] |
| > 70 µM | < 25% | – | COc1ccc(NC(=O)NCc2ccc(-c3ccccc3)c3c2CN(C)CC3)cc1 [Compound 117] |
| > 70 µM | < 25% | – | CN1CCc2c(-c3ccccc3)cc3c(c2C1)NC(=O)/C3=C/c1ccccc1 [Compound 87] |
| > 70 µM | < 25% | – | CCOC(=O)N1CCc2c(Br)ccc(NCC(=O)OC)c2C1 [Compound 158] |
| > 70 µM | < 25% | – | Nc1ccc(-c2ccccc2)c2ccncc12 [Compound 136] |
| > 70 µM | – | > 50% | CCOC(=O)N1CCc2c(Br)ccc([N+](=O)[O-])c2C1 [Compound 157] |
| > 70 µM | < 25% | – | CCOC(=O)N1CCc2c(-c3ccccc3)ccc(CN)c2C1 [Compound 120] |
| > 70 µM | < 25% | – | CN1CCc2c(-c3ccccc3)cc3c(c2C1)NC(=O)/C3=C/c1ccccc1O [Compound 86] |
| > 70 µM | < 25% | – | CN1CCc2c(-c3ccccc3)cc3c(c2C1)NC(=O)/C3=C/C(=O)O [Compound 91] |
| > 70 µM | < 25% | – | CCOC(=O)N1CCc2c(-c3ccccc3)cc(C(=O)CCl)c(N)c2C1 [Compound 149] |
| 20 to 40 µM | > 50% | – | CN1CCc2c(-c3ccccc3)cc3c(c2C1)NC(=O)/C3=N/N [Compound 102] |
| 20 to 40 µM | < 25% | – | CN1CCc2c(-c3ccccc3)cc3c(c2C1)NC(=O)C31OCCO1 [Compound 76] |
| > 70 µM | < 25% | – | CN1CCc2c(-c3ccccc3)cc(C(=O)O)c(N)c2C1 [Compound 141] |

| SMILES | IC50 [1] | inhibition at 50 µM [2] | inhibition at 100 µM ([2]; 100 μM, read-out: % inh. at 100 μM (Xo)) |
| --- | --- | --- | --- |
| CN1CCc2c(-c3ccccc3)ccc(C#N)c2C1 [Compound 178] | > 70 µM | < 25% | – |
| CN1CCc2c(-c3ccccc3)cc3cc[nH]c3c2C1 [Compound 78] | > 70 µM | < 25% | – |
| CC(=O)Nc1c(N)cc(-c2ccccc2)c2c1CN(C)CC2 [Compound 156] | > 70 µM | < 25% | – |
| COC(=O)CC(=O)Nc1ccc(-c2ccccc2)c2c1CN(C)CC2 [Compound 137] | > 70 µM | < 25% | – |
| CN1CCc2c(-c3ccccc3)ccc(NC(=O)CCCO)c2C1 [Compound 133] | > 70 µM | < 25% | – |
| CN1CCc2c(-c3ccccc3)ccc(NCCO)c2C1 [Compound 143] | > 70 µM | < 25% | – |
| CN1CCc2c(-c3ccccc3)cc([N+](=O)[O-])c(N)c2C1 [Compound 155] | 40 to 70 µM | < 25% | – |
| CN1CCc2c(-c3ccccc3)cc(C(N)=O)c(N)c2C1 [Compound 128] | > 70 µM | < 25% | – |
| COC(=O)CCC(=O)Nc1ccc(-c2ccccc2)c2c1CN(C)CC2 [Compound 132] | > 70 µM | < 25% | – |
| CCOC(=O)/C=N\c1ccc(-c2ccccc2)c2c1CN(C)CC2 [Compound 124] | > 70 µM | < 25% | – |
| CCOC(=O)CNc1ccc(-c2ccccc2)c2c1CN(C)CC2 [Compound 126] | 20 to 40 µM | < 25% | – |
| CCOC(=O)CNCc1ccc(-c2ccccc2)c2c1CN(C)CC2 [Compound 118] | > 70 µM | < 25% | – |
| COC(=O)c1cc(-c2ccccc2)c2c(c1N)CN(C)CC2 [Compound 142] | > 70 µM | < 25% | – |
| CN1CCc2c(-c3ccccc3)ccc(Br)c2C1 [Compound 172] | 50 to 70 µM | < 25% | – |
